Test results reported in patent US9155329B2, “Flavour compositions” (Givaudan Nederland Services B.V., priority 2005, dated 2015).
Like-named read-outs stand apart in the source and are kept apart here.

Assays:
[1] = Carbonated orange flavoured soft drink evaluation; conditions: compared to original drink
Method: Two different soft drinks A and B were prepared by adding respectively 40 ppb and 4 ppm of N-lactoyl 2-amino-2-methyl-propanol (as prepared in Example 4) to a commercially available carbonated orange flavoured soft drink.

[2] = Aqueous NaCl solution tasting by a sensory panel; conditions: solution B: 0.5% NaCl and 12 ppm substance; solution A (0.5% NaCl alone) described as salty
Method: Two aqueous solutions were prepared: • A. 0.5% NaCl • B. 0.5% NaCl and 12 ppm of N-lactoyl 2-amino-2-methyl-propanol (as prepared in Example 4)

[3] = standard chicken soup dosed to 5 ppm substance, versus reference soup
Method: A standard chicken soup was prepared. The quantity was split in two. One part was kept as reference and the other part was dosed to contain 5 ppm of N-gluconyl 2-amino-2-methyl-propanol (as prepared in Example 8). The soups were tasted by a professional panel.

[4] = Method: Four yoghurt samples were prepared: • A: Yoghurt 0% fat+strawberry flavour+sucralose (25%) 300 ppm • B: Yoghurt 0% fat+strawberry flavour+sucralose (25%) 300 ppm+10 ppm N-gluconyl 2-amino-2-methyl-propanol (as prepared in Example 8) • C: Yoghurt 0% fat+strawberry flavour+4% sugar • D: Yoghurt 0% fat+strawberry flavour+4% sugar+10 ppm N-gluconyl 2-amino-2-methyl-propanol (as prepared in Example 8)
The yoghurts were tasted by a professional panel.

[5] = sample B: ice cream (8% vegetable fat) + strawberry flavour + 7 ppm substance, versus A without substance
Method: […] ice cream (8% vegetable fat) samples were prepared: • A: Ice cream (see table 2)+strawberry flavour • B: Ice cream (see table 2)+strawberry flavour+7 ppm N-gluconyl 1-amino-2-methyl-2-propanol (as prepared in Example 5)
The ice creams were tasted by a professional panel.

In the case of CC(O)C(=O)NC(C)(C)CO (stereo not shown) [N-lactoyl 2-amino-2-methyl-propanol, N-lactoyl 2-amino-2-methylpropanol], the taste description ([1]; sample A: 40 ppb substance in commercial carbonated orange flavoured soft drink) is reported as “more natural, with a more juicy character than the original”, the taste description ([1]; sample B: 4 ppm substance in commercial carbonated orange flavoured soft drink) is reported as “tingling character typical of the flavour modulating substances of the present invention, which was judged as very pleasant and particularly well suited for the orange flavour” and the taste description [2] is reported as ““high impact”, “bouillon”, “meaty”, “salty”, “umami” and “salivating””.
With CC(C)(CO)NC(=O)[C@H](O)[C@@H](O)[C@H](O)[C@H](O)CO [N-gluconyl 2-amino-2-methyl-propanol, N-gluconyl 2-amino-2-methylpropanol] the taste description [3] was “more tasteful, more complete, more body, more fatty”, the taste description ([4]; sample B: yoghurt 0% fat + strawberry flavour + sucralose (25%) 300 ppm + 10 ppm substance, compared to A without substance) was “fuller more round and natural taste, more sugar sweetness, significantly less bitter metallic aftertaste compared to A” and the taste description ([4]; sample D: yoghurt 0% fat + strawberry flavour + 4% sugar + 10 ppm substance, compared to C without substance) was “fuller more round and natural taste, more intense sweet compared to C”.
In the case of CC(C)(O)CNC(=O)[C@H](O)[C@@H](O)[C@H](O)[C@H](O)CO [N-gluconyl 1-amino-2-methyl-2-propanol], the taste description [5] is reported as “more round and natural taste, very clear sweet enhancement and increased creaminess”.
